In ChEMBL document CHEMBL1909046, “DrugMatrix in vitro pharmacology data”:

tested on: not listed separately; assay: DRUGMATRIX: Sigma2 radioligand binding (ligand: [3H] Ifenprodil); assay type: cell membranes, Rattus norvegicus, Wistar, Brain, Membrane; conditions: Not Active = under 50% inhibition at 10 µM

SMILES | IC50 | Ki
CC1=C(/C=C/C(C)=C/C=C/C(C)=C\C(=O)O)C(C)(C)CCC1 [ISOTRETINOIN] | Not Active | Not Active
CC(=O)S[C@@H]1CC2=CC(=O)CC[C@]2(C)[C@H]2CC[C@@]3(C)[C@@H](CC[C@@]34CCC(=O)O4)[C@H]12 [SPIRONOLACTONE] | Not Active | Not Active

same assay, conditions: Not Active = under 50% inhibition at 10 µM; read-out: IC50

SMILES | IC50
CC(CCc1ccccc1)NCC(O)c1ccc(O)c(C(N)=O)c1 (stereo not given) [LABETALOL] | 2820 nM

same assay, conditions: Not Active = under 50% inhibition at 10 µM; read-out: Ki

SMILES | Ki
CC(CCc1ccccc1)NCC(O)c1ccc(O)c(C(N)=O)c1 (stereo not given) [LABETALOL] | 1730 nM

target: Sodium-dependent dopamine transporter (Homo sapiens, UniProt Q01959); assay: DRUGMATRIX: Dopamine Transporter radioligand binding (ligand: [125I] RTI-55); assay type: cell membranes, CHO-K1, Membrane; conditions: Not Active = under 50% inhibition at 10 µM; read-out: IC50
Sequence (Q01959 whole entry): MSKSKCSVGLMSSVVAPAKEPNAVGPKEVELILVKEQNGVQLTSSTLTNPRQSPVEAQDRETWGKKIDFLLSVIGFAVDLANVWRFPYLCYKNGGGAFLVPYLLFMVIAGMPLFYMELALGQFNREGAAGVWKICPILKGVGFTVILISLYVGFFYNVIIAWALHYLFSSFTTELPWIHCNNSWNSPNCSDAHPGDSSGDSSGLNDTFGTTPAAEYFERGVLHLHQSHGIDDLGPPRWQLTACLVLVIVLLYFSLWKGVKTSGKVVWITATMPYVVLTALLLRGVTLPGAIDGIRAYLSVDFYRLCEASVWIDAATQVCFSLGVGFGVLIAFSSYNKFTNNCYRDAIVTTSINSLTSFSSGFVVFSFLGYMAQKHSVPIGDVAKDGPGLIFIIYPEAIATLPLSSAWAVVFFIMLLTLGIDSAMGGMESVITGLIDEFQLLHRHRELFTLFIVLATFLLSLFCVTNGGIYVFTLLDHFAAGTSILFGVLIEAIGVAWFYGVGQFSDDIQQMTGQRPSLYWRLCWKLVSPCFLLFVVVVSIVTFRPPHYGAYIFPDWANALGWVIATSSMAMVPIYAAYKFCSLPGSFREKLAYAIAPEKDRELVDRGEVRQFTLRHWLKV

SMILES | IC50
CC(CCc1ccccc1)NCC(O)c1ccc(O)c(C(N)=O)c1 (stereo not given) [LABETALOL] | 1610 nM

same assay, conditions: Not Active = under 50% inhibition at 10 µM; read-out: Ki

SMILES | Ki
CC(CCc1ccccc1)NCC(O)c1ccc(O)c(C(N)=O)c1 (stereo not given) [LABETALOL] | 1280 nM

same assay, conditions: cho-k1; Not Active = under 50% inhibition at 10 µM

SMILES | IC50
CC1=C(/C=C/C(C)=C/C=C/C(C)=C\C(=O)O)C(C)(C)CCC1 [ISOTRETINOIN] | Not Active
CC(=O)S[C@@H]1CC2=CC(=O)CC[C@]2(C)[C@H]2CC[C@@]3(C)[C@@H](CC[C@@]34CCC(=O)O4)[C@H]12 [SPIRONOLACTONE] | Not Active

tested on: not listed separately; assay: DRUGMATRIX: GABAA, Flunitrazepam, Central radioligand binding (ligand: [3H] Flunitrazepam); assay type: cell membranes, Rattus norvegicus, Wistar, Brain, Membrane; conditions: Not Active = under 50% inhibition at 10 µM

SMILES | IC50 | Ki
CC1=C(/C=C/C(C)=C/C=C/C(C)=C\C(=O)O)C(C)(C)CCC1 [ISOTRETINOIN] | Not Active | Not Active
CC(=O)S[C@@H]1CC2=CC(=O)CC[C@]2(C)[C@H]2CC[C@@]3(C)[C@@H](CC[C@@]34CCC(=O)O4)[C@H]12 [SPIRONOLACTONE] | Not Active | Not Active
CC(CCc1ccccc1)NCC(O)c1ccc(O)c(C(N)=O)c1 (stereo not given) [LABETALOL] | Not Active | Not Active

target: Histamine H2 receptor (Homo sapiens, UniProt P25021); assay: not given; assay type: cell membranes, CHO-K1, Membrane; conditions: cho-k1; note: in other assays of this panel Not Active means under 50% inhibition at 10 µM
Sequence (P25021 whole entry): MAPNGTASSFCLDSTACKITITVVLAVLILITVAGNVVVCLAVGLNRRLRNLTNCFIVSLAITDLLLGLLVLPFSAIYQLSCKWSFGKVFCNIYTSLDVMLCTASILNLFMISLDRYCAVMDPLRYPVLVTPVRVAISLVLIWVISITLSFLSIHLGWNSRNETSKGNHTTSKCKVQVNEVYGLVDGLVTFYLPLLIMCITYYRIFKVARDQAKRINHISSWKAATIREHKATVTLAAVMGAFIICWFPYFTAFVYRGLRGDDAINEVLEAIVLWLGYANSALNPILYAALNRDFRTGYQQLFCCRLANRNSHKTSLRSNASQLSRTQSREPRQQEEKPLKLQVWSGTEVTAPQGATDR

SMILES | IC50
CC1=C(/C=C/C(C)=C/C=C/C(C)=C\C(=O)O)C(C)(C)CCC1 [ISOTRETINOIN] | Not Active
CC(=O)S[C@@H]1CC2=CC(=O)CC[C@]2(C)[C@H]2CC[C@@]3(C)[C@@H](CC[C@@]34CCC(=O)O4)[C@H]12 [SPIRONOLACTONE] | Not Active
CC(CCc1ccccc1)NCC(O)c1ccc(O)c(C(N)=O)c1 (stereo not given) [LABETALOL] | Not Active

target: Insulin receptor (Rattus norvegicus, UniProt P15127); assay: not given; assay type: cell membranes, Wistar, Liver, Membrane; conditions: not given; note: in other assays of this panel Not Active means under 50% inhibition at 10 µM
Sequence (P15127 27-759 limits assumed): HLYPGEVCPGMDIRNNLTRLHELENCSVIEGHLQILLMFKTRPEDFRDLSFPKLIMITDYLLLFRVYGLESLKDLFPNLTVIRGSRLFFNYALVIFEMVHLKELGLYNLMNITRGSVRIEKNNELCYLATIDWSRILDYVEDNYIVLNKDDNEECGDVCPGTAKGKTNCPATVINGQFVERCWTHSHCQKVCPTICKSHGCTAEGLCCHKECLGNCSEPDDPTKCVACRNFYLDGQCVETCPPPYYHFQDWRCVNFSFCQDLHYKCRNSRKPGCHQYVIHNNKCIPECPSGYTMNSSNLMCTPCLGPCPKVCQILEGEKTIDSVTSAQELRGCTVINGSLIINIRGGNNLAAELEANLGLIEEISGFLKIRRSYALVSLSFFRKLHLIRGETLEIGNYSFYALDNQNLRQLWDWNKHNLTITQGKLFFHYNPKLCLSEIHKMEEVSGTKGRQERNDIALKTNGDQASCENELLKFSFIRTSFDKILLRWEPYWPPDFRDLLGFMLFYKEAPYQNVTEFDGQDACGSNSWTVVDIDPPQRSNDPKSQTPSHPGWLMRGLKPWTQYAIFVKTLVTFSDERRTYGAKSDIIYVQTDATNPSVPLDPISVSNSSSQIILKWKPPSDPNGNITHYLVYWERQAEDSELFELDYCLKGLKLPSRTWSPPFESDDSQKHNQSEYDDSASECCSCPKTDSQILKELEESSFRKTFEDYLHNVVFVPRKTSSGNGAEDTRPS
Sequence (P15127 764-1383 limits assumed): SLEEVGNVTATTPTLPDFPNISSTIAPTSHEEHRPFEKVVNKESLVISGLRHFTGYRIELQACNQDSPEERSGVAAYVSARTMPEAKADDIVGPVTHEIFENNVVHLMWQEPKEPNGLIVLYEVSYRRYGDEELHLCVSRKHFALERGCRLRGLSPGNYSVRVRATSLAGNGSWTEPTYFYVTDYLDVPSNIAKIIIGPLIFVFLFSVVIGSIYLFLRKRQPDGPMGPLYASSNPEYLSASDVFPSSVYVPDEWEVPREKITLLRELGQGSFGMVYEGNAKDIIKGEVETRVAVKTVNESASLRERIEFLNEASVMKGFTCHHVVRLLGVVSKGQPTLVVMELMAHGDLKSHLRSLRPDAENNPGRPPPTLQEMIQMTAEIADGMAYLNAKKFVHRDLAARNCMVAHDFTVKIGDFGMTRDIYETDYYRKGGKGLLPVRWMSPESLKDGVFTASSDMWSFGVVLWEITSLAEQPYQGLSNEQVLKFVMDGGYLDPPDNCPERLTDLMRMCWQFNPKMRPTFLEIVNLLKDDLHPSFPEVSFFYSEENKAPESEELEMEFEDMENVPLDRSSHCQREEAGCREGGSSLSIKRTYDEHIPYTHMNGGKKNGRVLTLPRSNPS

SMILES | IC50
CC1=C(/C=C/C(C)=C/C=C/C(C)=C\C(=O)O)C(C)(C)CCC1 [ISOTRETINOIN] | Not Active
CC(=O)S[C@@H]1CC2=CC(=O)CC[C@]2(C)[C@H]2CC[C@@]3(C)[C@@H](CC[C@@]34CCC(=O)O4)[C@H]12 [SPIRONOLACTONE] | Not Active
CC(CCc1ccccc1)NCC(O)c1ccc(O)c(C(N)=O)c1 (stereo not given) [LABETALOL] | Not Active

tested on: not listed separately; assay: DRUGMATRIX: Leukotriene, BLT (LTB4) radioligand binding (ligand: [3H]LTB4); assay type: cell membranes, Membrane; conditions: u-937; Not Active = under 50% inhibition at 10 µM

SMILES | IC50 | Ki
CC1=C(/C=C/C(C)=C/C=C/C(C)=C\C(=O)O)C(C)(C)CCC1 [ISOTRETINOIN] | Not Active | Not Active
CC(=O)S[C@@H]1CC2=CC(=O)CC[C@]2(C)[C@H]2CC[C@@]3(C)[C@@H](CC[C@@]34CCC(=O)O4)[C@H]12 [SPIRONOLACTONE] | Not Active | Not Active
CC(CCc1ccccc1)NCC(O)c1ccc(O)c(C(N)=O)c1 (stereo not given) [LABETALOL] | Not Active | Not Active

target: Melanocortin receptor 3 (Homo sapiens, UniProt P41968); assay: not given; assay type: cell membranes, Membrane; conditions: hek293; note: in other assays of this panel Not Active means under 50% inhibition at 10 µM
Sequence (P41968 whole entry): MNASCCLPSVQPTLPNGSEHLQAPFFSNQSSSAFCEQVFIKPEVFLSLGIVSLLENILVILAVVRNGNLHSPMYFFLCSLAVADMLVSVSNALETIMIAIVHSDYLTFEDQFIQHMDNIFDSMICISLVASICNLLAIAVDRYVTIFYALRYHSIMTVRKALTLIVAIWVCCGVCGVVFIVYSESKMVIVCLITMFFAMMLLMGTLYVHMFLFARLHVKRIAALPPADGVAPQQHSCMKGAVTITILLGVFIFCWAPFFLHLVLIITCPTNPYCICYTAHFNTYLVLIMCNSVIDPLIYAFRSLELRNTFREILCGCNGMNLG

SMILES | IC50
CC1=C(/C=C/C(C)=C/C=C/C(C)=C\C(=O)O)C(C)(C)CCC1 [ISOTRETINOIN] | Not Active
CC(=O)S[C@@H]1CC2=CC(=O)CC[C@]2(C)[C@H]2CC[C@@]3(C)[C@@H](CC[C@@]34CCC(=O)O4)[C@H]12 [SPIRONOLACTONE] | Not Active
CC(CCc1ccccc1)NCC(O)c1ccc(O)c(C(N)=O)c1 (stereo not given) [LABETALOL] | Not Active

target: Melanocortin receptor 5 (Homo sapiens, UniProt P33032); assay: not given; assay type: cell membranes, HEK293, Membrane; conditions: hek293; note: in other assays of this panel Not Active means under 50% inhibition at 10 µM

SMILES | IC50
CC1=C(/C=C/C(C)=C/C=C/C(C)=C\C(=O)O)C(C)(C)CCC1 [ISOTRETINOIN] | Not Active
CC(=O)S[C@@H]1CC2=CC(=O)CC[C@]2(C)[C@H]2CC[C@@]3(C)[C@@H](CC[C@@]34CCC(=O)O4)[C@H]12 [SPIRONOLACTONE] | Not Active
CC(CCc1ccccc1)NCC(O)c1ccc(O)c(C(N)=O)c1 (stereo not given) [LABETALOL] | Not Active

target: T1, Muscarinic acetylcholine receptor M4 (Homo sapiens, UniProt P08173); assay: not given; assay type: cell membranes, CHO-K1, Membrane; conditions: cho-k1; note: in other assays of this panel Not Active means under 50% inhibition at 10 µM
T1 sequence (P08173 whole entry): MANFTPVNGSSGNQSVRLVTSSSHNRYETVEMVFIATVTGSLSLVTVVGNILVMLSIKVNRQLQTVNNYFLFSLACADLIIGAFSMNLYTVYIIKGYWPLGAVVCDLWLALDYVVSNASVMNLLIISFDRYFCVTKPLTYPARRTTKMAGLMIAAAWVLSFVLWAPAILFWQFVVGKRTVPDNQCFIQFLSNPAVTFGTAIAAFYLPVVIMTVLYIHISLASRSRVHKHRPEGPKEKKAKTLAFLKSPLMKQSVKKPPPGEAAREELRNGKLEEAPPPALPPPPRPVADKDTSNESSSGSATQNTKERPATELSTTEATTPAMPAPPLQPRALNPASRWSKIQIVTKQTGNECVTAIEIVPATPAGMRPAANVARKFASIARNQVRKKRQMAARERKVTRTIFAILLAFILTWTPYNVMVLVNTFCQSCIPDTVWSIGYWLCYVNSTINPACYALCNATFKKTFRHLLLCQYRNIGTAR

SMILES | IC50
CC1=C(/C=C/C(C)=C/C=C/C(C)=C\C(=O)O)C(C)(C)CCC1 [ISOTRETINOIN] | Not Active
CC(=O)S[C@@H]1CC2=CC(=O)CC[C@]2(C)[C@H]2CC[C@@]3(C)[C@@H](CC[C@@]34CCC(=O)O4)[C@H]12 [SPIRONOLACTONE] | Not Active
CC(CCc1ccccc1)NCC(O)c1ccc(O)c(C(N)=O)c1 (stereo not given) [LABETALOL] | Not Active

target: T2, Muscarinic acetylcholine receptor M5 (Homo sapiens, UniProt P08912); assay: not given; assay type: cell membranes, CHO-K1, Membrane; conditions: cho-k1; note: in other assays of this panel Not Active means under 50% inhibition at 10 µM
T2 sequence (P08912 whole entry): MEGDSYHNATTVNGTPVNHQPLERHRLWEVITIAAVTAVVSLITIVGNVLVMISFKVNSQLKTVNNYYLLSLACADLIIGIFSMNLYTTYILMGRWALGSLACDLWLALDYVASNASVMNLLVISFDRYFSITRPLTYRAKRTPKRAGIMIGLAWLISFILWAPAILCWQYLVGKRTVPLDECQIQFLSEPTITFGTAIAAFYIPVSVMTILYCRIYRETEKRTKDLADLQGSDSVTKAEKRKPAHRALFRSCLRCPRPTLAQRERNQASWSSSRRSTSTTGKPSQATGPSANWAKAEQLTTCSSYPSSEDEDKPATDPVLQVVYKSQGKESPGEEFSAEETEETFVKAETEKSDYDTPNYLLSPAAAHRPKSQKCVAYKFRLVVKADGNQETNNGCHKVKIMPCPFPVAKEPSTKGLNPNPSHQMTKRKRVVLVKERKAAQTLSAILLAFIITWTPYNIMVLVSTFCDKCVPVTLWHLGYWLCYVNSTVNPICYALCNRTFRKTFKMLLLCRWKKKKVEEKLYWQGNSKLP

SMILES | IC50
CC1=C(/C=C/C(C)=C/C=C/C(C)=C\C(=O)O)C(C)(C)CCC1 [ISOTRETINOIN] | Not Active
CC(=O)S[C@@H]1CC2=CC(=O)CC[C@]2(C)[C@H]2CC[C@@]3(C)[C@@H](CC[C@@]34CCC(=O)O4)[C@H]12 [SPIRONOLACTONE] | Not Active
CC(CCc1ccccc1)NCC(O)c1ccc(O)c(C(N)=O)c1 (stereo not given) [LABETALOL] | Not Active

target: T3, Caspase-1 (Homo sapiens, UniProt P29466); assay: not given; set-up: species or system Escherichia coli; conditions: not given
T3 sequence (P29466 whole entry): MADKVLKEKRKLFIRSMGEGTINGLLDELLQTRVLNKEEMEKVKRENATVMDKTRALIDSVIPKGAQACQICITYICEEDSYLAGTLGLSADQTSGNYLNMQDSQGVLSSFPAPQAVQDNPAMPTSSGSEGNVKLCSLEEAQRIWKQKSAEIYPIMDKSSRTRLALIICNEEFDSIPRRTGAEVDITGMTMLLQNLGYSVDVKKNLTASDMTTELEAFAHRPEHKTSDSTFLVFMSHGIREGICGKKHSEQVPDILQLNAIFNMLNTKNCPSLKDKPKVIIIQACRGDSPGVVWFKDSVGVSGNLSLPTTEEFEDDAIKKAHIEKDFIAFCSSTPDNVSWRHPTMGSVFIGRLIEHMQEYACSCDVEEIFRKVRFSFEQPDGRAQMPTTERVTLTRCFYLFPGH

SMILES | IC50
CC1=C(/C=C/C(C)=C/C=C/C(C)=C\C(=O)O)C(C)(C)CCC1 [ISOTRETINOIN] | Not Active
CC(=O)S[C@@H]1CC2=CC(=O)CC[C@]2(C)[C@H]2CC[C@@]3(C)[C@@H](CC[C@@]34CCC(=O)O4)[C@H]12 [SPIRONOLACTONE] | Not Active
CC(CCc1ccccc1)NCC(O)c1ccc(O)c(C(N)=O)c1 (stereo not given) [LABETALOL] | Not Active

target: T4, Neutrophil elastase (Homo sapiens, UniProt P08246); assay: not given; assay type: tissue-based; conditions: not given
T4 sequence (P08246 whole entry): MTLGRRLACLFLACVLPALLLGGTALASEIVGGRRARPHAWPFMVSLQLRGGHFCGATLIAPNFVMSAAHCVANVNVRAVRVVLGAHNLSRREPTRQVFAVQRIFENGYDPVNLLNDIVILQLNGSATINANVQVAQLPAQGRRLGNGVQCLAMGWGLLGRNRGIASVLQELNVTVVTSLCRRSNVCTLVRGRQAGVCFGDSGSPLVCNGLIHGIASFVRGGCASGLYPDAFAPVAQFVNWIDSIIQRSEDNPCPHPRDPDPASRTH

SMILES | IC50
CC1=C(/C=C/C(C)=C/C=C/C(C)=C\C(=O)O)C(C)(C)CCC1 [ISOTRETINOIN] | Not Active
CC(=O)S[C@@H]1CC2=CC(=O)CC[C@]2(C)[C@H]2CC[C@@]3(C)[C@@H](CC[C@@]34CCC(=O)O4)[C@H]12 [SPIRONOLACTONE] | Not Active
CC(CCc1ccccc1)NCC(O)c1ccc(O)c(C(N)=O)c1 (stereo not given) [LABETALOL] | Not Active

target: Tyrosine-protein kinase Fyn (Homo sapiens, UniProt P06241); assay: biochemical; assay type: cell-based, Insect cells; conditions: insect cells
Sequence (P06241 whole entry): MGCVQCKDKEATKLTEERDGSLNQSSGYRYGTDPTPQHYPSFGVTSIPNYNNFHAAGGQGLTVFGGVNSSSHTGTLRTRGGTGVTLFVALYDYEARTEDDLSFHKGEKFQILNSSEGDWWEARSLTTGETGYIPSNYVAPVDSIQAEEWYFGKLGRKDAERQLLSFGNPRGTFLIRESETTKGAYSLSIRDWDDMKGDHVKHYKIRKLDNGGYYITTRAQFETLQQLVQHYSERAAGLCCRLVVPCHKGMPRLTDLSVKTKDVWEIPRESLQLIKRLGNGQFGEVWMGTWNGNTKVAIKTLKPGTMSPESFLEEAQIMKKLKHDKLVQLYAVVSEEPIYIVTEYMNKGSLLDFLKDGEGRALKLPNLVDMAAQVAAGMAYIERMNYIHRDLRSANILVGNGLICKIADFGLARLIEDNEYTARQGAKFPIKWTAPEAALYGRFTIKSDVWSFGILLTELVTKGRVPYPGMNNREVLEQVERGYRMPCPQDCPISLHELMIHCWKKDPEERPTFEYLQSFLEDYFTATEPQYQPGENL

SMILES | IC50
CC1=C(/C=C/C(C)=C/C=C/C(C)=C\C(=O)O)C(C)(C)CCC1 [ISOTRETINOIN] | Not Active
CC(=O)S[C@@H]1CC2=CC(=O)CC[C@]2(C)[C@H]2CC[C@@]3(C)[C@@H](CC[C@@]34CCC(=O)O4)[C@H]12 [SPIRONOLACTONE] | Not Active
CC(CCc1ccccc1)NCC(O)c1ccc(O)c(C(N)=O)c1 (stereo not given) [LABETALOL] | Not Active

target: Receptor tyrosine-protein kinase erbB-2 (Homo sapiens, UniProt P04626); assay: biochemical; assay type: cell-based, Insect cells; conditions: insect cells
Sequence (P04626 whole entry): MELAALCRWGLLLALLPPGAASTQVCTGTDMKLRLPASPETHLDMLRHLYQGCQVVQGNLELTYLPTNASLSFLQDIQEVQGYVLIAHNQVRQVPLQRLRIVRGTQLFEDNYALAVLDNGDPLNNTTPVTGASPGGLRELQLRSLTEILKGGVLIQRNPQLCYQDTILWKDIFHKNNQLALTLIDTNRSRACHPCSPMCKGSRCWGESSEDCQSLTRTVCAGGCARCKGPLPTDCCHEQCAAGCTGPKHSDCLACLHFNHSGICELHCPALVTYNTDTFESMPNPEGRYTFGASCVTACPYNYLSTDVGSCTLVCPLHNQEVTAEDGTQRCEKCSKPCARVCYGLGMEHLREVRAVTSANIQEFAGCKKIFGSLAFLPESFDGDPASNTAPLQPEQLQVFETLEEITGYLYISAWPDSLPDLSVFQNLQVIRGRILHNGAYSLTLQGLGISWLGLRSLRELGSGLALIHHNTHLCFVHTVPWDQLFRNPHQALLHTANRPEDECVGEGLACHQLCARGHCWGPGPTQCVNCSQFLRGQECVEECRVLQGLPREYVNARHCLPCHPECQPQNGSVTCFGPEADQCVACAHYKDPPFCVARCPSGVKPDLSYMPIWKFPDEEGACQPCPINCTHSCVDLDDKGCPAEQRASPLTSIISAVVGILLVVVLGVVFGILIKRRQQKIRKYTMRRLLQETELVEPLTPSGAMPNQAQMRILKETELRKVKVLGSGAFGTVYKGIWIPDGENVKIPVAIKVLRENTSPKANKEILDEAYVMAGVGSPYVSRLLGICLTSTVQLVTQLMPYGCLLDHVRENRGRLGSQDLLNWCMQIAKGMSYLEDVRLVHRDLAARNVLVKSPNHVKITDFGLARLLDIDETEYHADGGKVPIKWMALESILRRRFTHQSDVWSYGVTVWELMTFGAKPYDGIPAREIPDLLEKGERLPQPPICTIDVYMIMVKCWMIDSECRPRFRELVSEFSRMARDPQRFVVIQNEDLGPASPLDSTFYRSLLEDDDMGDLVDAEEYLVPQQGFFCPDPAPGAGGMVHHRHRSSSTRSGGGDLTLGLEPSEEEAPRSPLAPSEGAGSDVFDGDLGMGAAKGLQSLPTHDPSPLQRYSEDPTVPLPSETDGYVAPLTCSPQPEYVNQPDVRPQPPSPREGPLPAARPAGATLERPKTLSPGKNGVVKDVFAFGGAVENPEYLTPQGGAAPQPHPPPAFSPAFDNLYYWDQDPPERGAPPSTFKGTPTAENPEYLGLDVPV

SMILES | IC50
CC1=C(/C=C/C(C)=C/C=C/C(C)=C\C(=O)O)C(C)(C)CCC1 [ISOTRETINOIN] | Not Active
CC(=O)S[C@@H]1CC2=CC(=O)CC[C@]2(C)[C@H]2CC[C@@]3(C)[C@@H](CC[C@@]34CCC(=O)O4)[C@H]12 [SPIRONOLACTONE] | Not Active
CC(CCc1ccccc1)NCC(O)c1ccc(O)c(C(N)=O)c1 (stereo not given) [LABETALOL] | Not Active

target: 5-hydroxytryptamine receptor 1B (Rattus norvegicus, UniProt P28564); assay: not given; assay type: cell membranes, Wistar, Cerebral cortex, Membrane; conditions: not given; note: in other assays of this panel Not Active means under 50% inhibition at 10 µM
Sequence (P28564 whole entry): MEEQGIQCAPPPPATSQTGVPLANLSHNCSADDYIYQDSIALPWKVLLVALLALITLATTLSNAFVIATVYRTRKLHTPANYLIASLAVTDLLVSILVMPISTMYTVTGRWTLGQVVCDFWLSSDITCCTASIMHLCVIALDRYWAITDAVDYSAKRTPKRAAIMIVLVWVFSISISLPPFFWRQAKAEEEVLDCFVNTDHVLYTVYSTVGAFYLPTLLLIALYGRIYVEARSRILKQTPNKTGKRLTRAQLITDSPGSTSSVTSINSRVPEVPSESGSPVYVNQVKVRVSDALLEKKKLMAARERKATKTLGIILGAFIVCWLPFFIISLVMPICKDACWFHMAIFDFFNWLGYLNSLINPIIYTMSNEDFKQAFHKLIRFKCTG

SMILES | IC50
CC1=C(/C=C/C(C)=C/C=C/C(C)=C\C(=O)O)C(C)(C)CCC1 [ISOTRETINOIN] | Not Active
CC(=O)S[C@@H]1CC2=CC(=O)CC[C@]2(C)[C@H]2CC[C@@]3(C)[C@@H](CC[C@@]34CCC(=O)O4)[C@H]12 [SPIRONOLACTONE] | Not Active
CC(CCc1ccccc1)NCC(O)c1ccc(O)c(C(N)=O)c1 (stereo not given) [LABETALOL] | Not Active
